Experimental data: article PMC5421785, “Citrullination only infrequently impacts peptide binding to HLA class II MHC” (PLoS ONE, 2017)
Like-named read-outs stand apart in the source and are kept apart here. Square brackets hold non-standard residues; d marks the D form. Peptide text beside a SMILES is read from it. Cit = NC(=O)NCCC[C@H](N)C(=O)O

Assays:
HLA-DRB1*01:01 = target: T1, HLA-DRB1*01:01 (Homo sapiens, UniProt P01903+P01911, A100R/D57E/F55L/F60I/F76Y/I96L/L162R/M171V/P40L/Q125E/R42F/V115G/Y59C); test: HLA class II peptide binding, inhibition of radiolabeled peptide binding to purified MHC
T1 construct: EBV transformed homozygous cell lines were used as sources of MHC molecules; endogenous in cells; host or cells: EBV transformed homozygous cell lines

HLA-DRB1*04:01 = target: T2, HLA-DRB1*04:01 (Homo sapiens, UniProt P01903+P01911, A100K/A169T/F76Y/I96L/K127E/L162R/M171V/N62H/P40V/Q125Y/R42H/S133A/S149N/S66Y/V115G/V209L/W38E); test: as above
T2 construct: EBV transformed homozygous cell lines were used as sources of MHC molecules; endogenous in cells; host or cells: EBV transformed homozygous cell lines

[1] = citrullinated 15-mer peptide (X = citrulline), purified HLA-DRB1*01:01, read-out: DRB1*01:01 binding capacity, Cit peptide (IC50 nM)
[2] = ratio of WT IC50 to Cit IC50, >1 = citrullination increases binding
[3] = citrullinated 15-mer peptide (X = citrulline), purified HLA-DRB1*04:01, read-out: DRB1*04:01 binding capacity, Cit peptide (IC50 nM)
[4] = citrullinated 15-mer (X), purified MHC, inhibition of radiolabeled peptide binding, dash = IC50 >40,000 nM, read-out: DRB1*01:01 binding capacity, Cit peptide (IC50 nM)
[5] = citrullinated 15-mer (X), purified MHC, inhibition of radiolabeled peptide binding, dash = IC50 >40,000 nM, read-out: DRB1*04:01 binding capacity, Cit peptide (IC50 nM)
[6] = citrullinated peptide as listed (X at Cit position), read-out: DRB1*01:01 binding capacity Cit peptide (IC50 nM)
[7] = citrullinated peptide as listed (X at Cit position), read-out: DRB1*04:01 binding capacity Cit peptide (IC50 nM)

Compound	IC50 (HLA-DRB1*01:01; [4]) [nM]	IC50 (HLA-DRB1*04:01; [5]) [nM]	further results
C[C@H](NC(=O)CNC(=O)[C@@H]1CCCN1C(=O)[C@H](CO)NC(=O)CNC(=O)[C@H](CCC(=O)O)NC(=O)[C@@H](N)CCCNC(=N)N)C(=O)N[C@@H](CC(=O)O)C(=O)NCC(=O)N1CCC[C@H]1C(=O)N1CCC[C@H]1C(=O)NCC(=O)N[C@@H](CCCNC(N)=O)C(=O)N[C@@H](CC(=O)O)C(=O)NCC(=O)O [REGSPGADGPPGXDG] (H-REGSPGADGPPG[Cit]DG-OH; N-terminus and C-terminus assumed)			IC50 (HLA-DRB1*01:01; [1]): > 40000 nM; DRB1*01:01 binding capacity, WT/cit ratio (HLA-DRB1*01:01; [2]): 1.0; IC50 (HLA-DRB1*04:01; [3]): > 40000 nM; DRB1*04:01 binding capacity, WT/cit ratio (HLA-DRB1*04:01; [2]): 1.0
CSCC[C@H](NC(=O)[C@H](CCC(=O)O)NC(=O)[C@H](CCC(=O)O)NC(=O)[C@H](CCC(N)=O)NC(=O)[C@H](CC(C)C)NC(=O)[C@H](CCCCN)NC(=O)[C@H](CCC(=O)O)NC(=O)[C@@H](N)CCCNC(=N)N)C(=O)N[C@@H](CC(C)C)C(=O)N[C@@H](CCC(N)=O)C(=O)N[C@@H](CCCNC(N)=O)C(=O)N[C@@H](CCC(=O)O)C(=O)N[C@@H](CCC(=O)O)C(=O)N[C@@H](C)C(=O)N[C@@H](CCC(=O)O)C(=O)O [REKLQEEMLQXEEAE] (H-REKLQEEMLQ[Cit]EEAE-OH)	13200	> 40000	
CC[C@H](C)[C@H](NC(=O)[C@H](CCCNC(N)=O)NC(=O)[C@H](CO)NC(=O)[C@H](CCC(=O)O)NC(=O)[C@H](CCC(=O)O)NC(=O)CNC(=O)[C@H](CCC(=O)O)NC(=O)[C@H](CC(C)C)NC(=O)[C@H](CC(C)C)NC(=O)[C@H](CCCCN)NC(=O)[C@@H](N)CCCNC(=N)N)C(=O)N[C@@H](CO)C(=O)N[C@@H](CC(C)C)C(=O)N1CCC[C@H]1C(=O)N[C@@H](CC(C)C)C(=O)O [RKLLEGEESXISLPL]			IC50 (HLA-DRB1*01:01; [1]): 1320 nM; IC50 (HLA-DRB1*04:01; [3]): 1200 nM
CC(C)C[C@H](NC(=O)[C@H](CC(C)C)NC(=O)[C@H](CCCNC(N)=O)NC(=O)[C@@H](NC(=O)CNC(=O)[C@@H]1CCCN1C(=O)[C@@H](NC(=O)[C@H](CO)NC(=O)[C@H](CO)NC(=O)[C@@H](N)CCCNC(=N)N)C(C)C)C(C)C)C(=O)N[C@@H](CCC(N)=O)C(=O)N[C@@H](CC(=O)O)C(=O)N[C@@H](CO)C(=O)N[C@H](C(=O)N[C@@H](CC(=O)O)C(=O)O)C(C)C [RSSVPGVXLLQDSVD] (H-RSSVPGV[Cit]LLQDSVD-OH)	1310	8950	
CC(C)C[C@H](NC(=O)[C@H](C)NC(=O)[C@H](CO)NC(=O)CNC(=O)[C@H](CC(C)C)NC(=O)[C@H](CO)NC(=O)[C@H](Cc1ccc(O)cc1)NC(=O)[C@@H](NC(=O)[C@@H](N)CCCNC(=N)N)[C@@H](C)O)C(=O)N[C@@H](CCCNC(=N)N)C(=O)N1CCC[C@H]1C(=O)N[C@@H](CO)C(=O)N[C@H](C(=O)N[C@@H](CO)C(=O)N[C@@H](CCCNC(N)=O)C(=O)O)[C@@H](C)O [RTYSLGSALRPSTSX] (H-RTYSLGSALRPSTS[Cit]-OH)	21	1090	
CC(C)C[C@H](NC(=O)[C@H](C)NC(=O)[C@H](CO)NC(=O)CNC(=O)[C@H](CC(C)C)NC(=O)[C@H](CO)NC(=O)[C@H](Cc1ccc(O)cc1)NC(=O)[C@@H](NC(=O)[C@@H](N)CCCNC(=N)N)[C@@H](C)O)C(=O)N[C@@H](CCCNC(N)=O)C(=O)N1CCC[C@H]1C(=O)N[C@@H](CO)C(=O)N[C@H](C(=O)N[C@@H](CO)C(=O)N[C@@H](CCCNC(=N)N)C(=O)O)[C@@H](C)O [RTYSLGSALXPSTSR] (H-RTYSLGSAL[Cit]PSTSR-OH)	14	1100	
CC(C)C[C@H](NC(=O)CNC(=O)[C@H](C)NC(=O)[C@H](Cc1ccccc1)NC(=O)[C@H](C)NC(=O)[C@@H](N)CO)C(=O)NCC(=O)N1CCC[C@H]1C(=O)N[C@@H](CCCNC(N)=O)C(=O)N[C@@H](CCC(=O)O)C(=O)N[C@@H](CCCCN)C(=O)NCC(=O)N1CCC[C@H]1C(=O)N[C@@H](CC(=O)O)C(=O)N1CCC[C@H]1C(=O)O [SAFAGLGPXEKGPDP] (H-SAFAGLGP[Cit]EKGPDP-OH)			IC50 (HLA-DRB1*01:01; [1]): 35 nM; IC50 (HLA-DRB1*04:01; [3]): 6400 nM
CC(C)C[C@H](NC(=O)[C@H](CC(C)C)NC(=O)[C@H](CCCNC(N)=O)NC(=O)[C@@H](NC(=O)CNC(=O)[C@@H]1CCCN1C(=O)[C@@H](NC(=O)[C@H](CO)NC(=O)[C@H](CO)NC(=O)[C@H](CCCNC(=N)N)NC(=O)[C@H](CC(C)C)NC(=O)[C@H](CCCNC(=N)N)NC(=O)[C@@H](NC(=O)[C@H](C)NC(=O)[C@@H](N)CO)C(C)C)C(C)C)C(C)C)C(=O)O [SAVRLRSSVPGVXLL] (H-SAVRLRSSVPGV[Cit]LL-OH)	9.7	641	
CC(C)C[C@H](NC(=O)[C@H](CC(C)C)NC(=O)[C@H](CCCNC(=N)N)NC(=O)[C@@H](NC(=O)CNC(=O)[C@@H]1CCCN1C(=O)[C@@H](NC(=O)[C@H](CO)NC(=O)[C@H](CO)NC(=O)[C@H](CCCNC(N)=O)NC(=O)[C@H](CC(C)C)NC(=O)[C@H](CCCNC(=N)N)NC(=O)[C@@H](NC(=O)[C@H](C)NC(=O)[C@@H](N)CO)C(C)C)C(C)C)C(C)C)C(=O)O [SAVRLXSSVPGVRLL] (H-SAVRL[Cit]SSVPGVRLL-OH)	0.7	11	
CC(C)C[C@H](NC(=O)[C@H](CC(C)C)NC(=O)[C@H](CCCNC(=N)N)NC(=O)[C@@H](NC(=O)CNC(=O)[C@@H]1CCCN1C(=O)[C@@H](NC(=O)[C@H](CO)NC(=O)[C@H](CO)NC(=O)[C@H](CCCNC(=N)N)NC(=O)[C@H](CC(C)C)NC(=O)[C@H](CCCNC(N)=O)NC(=O)[C@@H](NC(=O)[C@H](C)NC(=O)[C@@H](N)CO)C(C)C)C(C)C)C(C)C)C(=O)O [SAVXLRSSVPGVRLL] (H-SAV[Cit]LRSSVPGVRLL-OH)	19	1050	
CC(C)C[C@H](NC(=O)[C@H](C)NC(=O)[C@H](C)NC(=O)[C@@H](NC(=O)[C@H](CC(C)C)NC(=O)[C@H](CC(=O)O)NC(=O)[C@@H]1CCCN1C(=O)[C@H](CCCCN)NC(=O)[C@@H](N)CO)[C@@H](C)O)C(=O)N[C@@H](CCCNC(=N)N)C(=O)N[C@@H](CC(=O)O)C(=O)N[C@H](C(=O)N[C@@H](CCCNC(N)=O)C(=O)N[C@@H](CCC(N)=O)C(=O)N[C@@H](CCC(N)=O)C(=O)O)C(C)C [SKPDLTAALRDVXQQ] (H-SKPDLTAALRDV[Cit]QQ-OH)	5590	29700	
CC(C)C[C@H](NC(=O)[C@H](C)NC(=O)[C@H](C)NC(=O)[C@@H](NC(=O)[C@H](CC(C)C)NC(=O)[C@H](CC(=O)O)NC(=O)[C@@H]1CCCN1C(=O)[C@H](CCCCN)NC(=O)[C@@H](N)CO)[C@@H](C)O)C(=O)N[C@@H](CCCNC(N)=O)C(=O)N[C@@H](CC(=O)O)C(=O)N[C@H](C(=O)N[C@@H](CCCNC(=N)N)C(=O)N[C@@H](CCC(N)=O)C(=O)N[C@@H](CCC(N)=O)C(=O)O)C(C)C [SKPDLTAALXDVRQQ] (H-SKPDLTAAL[Cit]DVRQQ-OH)	1370	30300	
CC[C@H](C)[C@H](NC(=O)[C@H](CCC(N)=O)NC(=O)[C@H](CC(N)=O)NC(=O)[C@H](CC(N)=O)NC(=O)[C@H](CC(C)C)NC(=O)[C@@H](N)CO)C(=O)N[C@@H](CCC(=O)O)C(=O)N[C@@H](CO)C(=O)N[C@H](C(=O)N[C@@H](CCCNC(N)=O)C(=O)N[C@@H](CO)C(=O)N1CCC[C@H]1C(=O)N[C@@H](CCC(=O)O)C(=O)NCC(=O)N[C@@H](CO)C(=O)O)[C@@H](C)CC [SLNNQIESIXSPEGS] (H-SLNNQIESI[Cit]SPEGS-OH)			IC50 (HLA-DRB1*01:01; [6]): 6.5 nM; IC50 (HLA-DRB1*04:01; [7]): 18 nM
CC(C)C[C@H](NC(=O)[C@@H](N)CO)C(=O)N[C@@H](Cc1ccc(O)cc1)C(=O)N[C@@H](C)C(=O)N[C@@H](CO)C(=O)N[C@@H](CO)C(=O)N1CCC[C@H]1C(=O)NCC(=O)NCC(=O)N[C@H](C(=O)N[C@@H](Cc1ccc(O)cc1)C(=O)N[C@@H](C)C(=O)N[C@H](C(=O)N[C@@H](CCCNC(N)=O)C(=O)N[C@@H](CO)C(=O)O)[C@@H](C)O)C(C)C [SLYASSPGGVYATXS]	16	1280	
CC[C@H](C)[C@H](NC(=O)[C@H](CCC(=O)O)NC(=O)[C@@H](NC(=O)[C@H](CC(=O)O)NC(=O)[C@H](CC(N)=O)NC(=O)[C@@H](N)CO)C(C)C)C(=O)N[C@@H](CCCNC(=N)N)C(=O)N[C@@H](C)C(=O)N[C@@H](CCC(=O)O)C(=O)NCC(=O)N[C@@H](CC(N)=O)C(=O)N[C@@H](CO)C(=O)N[C@@H](CCCNC(N)=O)C(=O)N[C@@H](Cc1ccccc1)C(=O)N[C@H](C(=O)O)[C@@H](C)O [SNDVEIRAEGNSXFT] (H-SNDVEIRAEGNS[Cit]FT-OH)			IC50 (HLA-DRB1*01:01; [6]): 92 nM; IC50 (HLA-DRB1*04:01; [7]): 178 nM
CC[C@H](C)[C@H](NC(=O)[C@H](CCC(=O)O)NC(=O)[C@@H](NC(=O)[C@H](CC(=O)O)NC(=O)[C@H](CC(N)=O)NC(=O)[C@@H](N)CO)C(C)C)C(=O)N[C@@H](CCCNC(N)=O)C(=O)N[C@@H](C)C(=O)N[C@@H](CCC(=O)O)C(=O)NCC(=O)N[C@@H](CC(N)=O)C(=O)N[C@@H](CO)C(=O)N[C@@H](CCCNC(=N)N)C(=O)N[C@@H](Cc1ccccc1)C(=O)N[C@H](C(=O)O)[C@@H](C)O [SNDVEIXAEGNSRFT] (H-SNDVEI[Cit]AEGNSRFT-OH)			IC50 (HLA-DRB1*01:01; [6]): 1520 nM; IC50 (HLA-DRB1*04:01; [7]): 929 nM
CC(C)C[C@H](NC(=O)[C@H](CCCNC(N)=O)NC(=O)[C@@H](NC(=O)[C@H](C)NC(=O)[C@H](CO)NC(=O)[C@H](CO)NC(=O)[C@H](CCCNC(=N)N)NC(=O)[C@@H](NC(=O)[C@H](C)NC(=O)[C@H](Cc1ccc(O)cc1)NC(=O)[C@@H](NC(=O)CNC(=O)CNC(=O)[C@@H]1CCCN1C(=O)[C@@H](N)CO)C(C)C)[C@@H](C)O)C(C)C)C(=O)O [SPGGVYATRSSAVXL] (H-SPGGVYATRSSAV[Cit]L-OH)	7.6	497	
